In US20260325504A1, “Genetically Engineered Human Pituitary Corticotroph Tumor Organoids Exhibit Divergent Responses to Selective Glucocorticoid Receptor Modulators” (Corcept Therapeutics Incorporated, priority 2022, published 2026):
Entries after “also recorded” stand apart in the source; their conditions may differ.

Experiments:
Format in all cases: cell-based, human
SSTR2 = assay: Spectral flow cytometry, SSTR2 positive cells, hPITOs; conditions: hPITO, 48 h, FIGS. 9E, F
Source text: (§1) 1.3 Generation and Culture of Human PitNET Tissue Organoids (hPITOs)
(§2) Patients undergoing planned transsphenoidal surgery for PitNETs were identified in the outpatient neuroendocrinology and neurosurgery clinics and collected by the St. Joseph's Hospital and Barrow Neurological Institute Biobank under the collection protocol PHXA-05TS038, and outcomes data protocol PHXA-0004-72-29 with approval of the Institutional Review Board (IRB) and patient consent. De-identified samples were shipped in collection and transport media (Table 3) to the Zavros laboratory (University of Arizona) for processing within 24 hours of collection. Resected PitNET tissues were washed with Dulbeccos Phosphate Buffered Saline (DPBS) supplemented with 1× Penicillin/Streptomycin, 1× Kanamycin and 1× Amphotericin/Gentamycin, minced into smaller pieces, and incubated with digestion buffer (Dulbecco's Modified Eagle Medium/Nutrient Mixture F-12 (DMEM/F12) supplemented with 0.4% Collagenase 2, 0.1% Hyaluronic Acid, 0.03% Trypsin). The tissue was incubated with Accutase (Thermo Fisher Scientific) for a further 5 minutes, and the cells were pelleted and washed with DPBS supplemented with antibiotics. Dissociated cells were then seeded as Matrigel™ domes in culture dishes and overlaid with growth media (Table 4). Media was replaced every 3 days and organoids were harvested for downstream experiments or passaged after 15 days of culture (FIG. 1B).
(§3) Sonic Hedgehog (SHH) was withdrawn from the organoid growth media 16 hours prior to treatment. […] The IC50 values used for each hPITO line for each drug were determined based on dose responses (FIG. 12). […]

ACTH = assay: Spectral flow cytometry, ACTH positive cells, hPITOs
Source text: as §1, §2, §3

iPSC^ctrl organoids = assay: EdU uptake (proliferation) in iPSCctrl organoids; conditions: compound alone, 500 nM, 48 h
Protocol: iPSCs were stained for pituitary specific hormones including luteinizing hormone (LH), follicle-stimulating hormone (FSH), growth hormone (GH), prolactin (PRL), ACTH, cytokeratin 8/18 (CAM5.2), pituitary transcription factor PIT-1 and neuroendocrine marker Synaptophysin (Table 5). Cultures were immunostained for proliferation marker EdU (Click-IT EdU Alexa Fluor 555 Imaging Kit, Thermo Fisher Scientific C10338). Antibody dilutions were determined based on manufacturer guidelines and antibody titration (Table 5). Staining was conducted according to previously published protocols. Briefly, organoids and iPSCs grown in 8-well glass bottom chamber slides were fixed using 3.7% formaldehyde, washed with DPBS, permeabilized with 0.5% Triton X-100 (SIGMA X-100, PBS-T, 20 min at room temperature), washed with 0.01% PBS-T, and blocked with 2% donkey serum (Jackson Immuno Research 017-000-121) for 1 hour at room temperature. After blocking, primary antibodies were added and incubated overnight at 4° C. Slides were washed with 0.01% PBS-T and incubated with secondary antibodies (Table 5) with Hoechst (Thermo Fisher Scientific H1399) for 1 hour at room temperature. Organoids were washed and stored in PBS at 4° C. until microscopic analysis. High content confocal microscopy was performed using the Nikon Ti2-E Inverted Microscope (with a Crest X-Light V2 L-FOV Spinning Disk Confocal) at the University of Arizona Cancer Center, or a ZEISS LSM880 34 channel Laser Scanning Confocal Microscope at University of Arizona Marley Imaging Core. Fluorescence intensity was quantified as the percentage of marker-positive cells versus total cells, using Nikon Elements Software (Version 5.21.05). Proliferation for each iPSC line was quantified as the percentage of EdU-positive cells versus total cells.
Sonic Hedgehog (SHH) was withdrawn from the organoid growth media 16 hours prior to treatment. The experimental treatment groups included: vehicle (Veh), mifepristone (500 nM, Selleckchem S2606), GANT61 (5 μM, Stemcell Technologies 73692), ketoconazole (Keto, 10 μM, Selleckchem S1353), pasireotide (Pas, 100 nM, Target Mol TP2207-SB001), octreotide (Oct, 100 nM, Selleckchem P1017), mifepristone plus GANT61, mifepristone plus Keto, mifepristone plus Pas, relacorilant (500 nM, Corcept Therapeutics CORT125134), relacorilant plus Pas, relacorilant plus Oct, or dexamethasone (Dexa, 100 nM, SIGMA S4902). In the combination treatments, cultures were pretreated with the GANT61, Keto, Pas or Oct for 2 hours prior to treatment with mifepristone or Rela. […] The IC50 values used for each hPITO line for each drug were determined based on dose responses (FIG. 12). […]

| SMILES | magnitude of SSTR2 induction, mifepristone vs relacorilant (SSTR2) | percentage of SSTR2 positive cells (SSTR2) | number of ACTH expressing cells / ACTH (ACTH; hPITO, 48 h, FIGS. 9I, J) | proliferation (EdU uptake) (iPSC^ctrl organoids) | sensitization of organoids to pasireotide (ACTH; CD PitNET tissue derived organoids) |
| --- | --- | --- | --- | --- | --- |
| CC#C[C@]1(O)CC[C@H]2[C@@H]3CCC4=CC(=O)CCC4=C3[C@@H](c3ccc(N(C)C)cc3)C[C@@]21C [mifepristone, 11β-(4-dimethylaminophenyl)-17ß-hydroxy-17α-(1-propynyl)-estra-4,9-dien-3-one] | significantly greater than that of relacorilant | significant increase | significantly increased the number of ACTH expressing cells | significant increase in cell proliferation | – |
| Cn1cc(S(=O)(=O)N2CCC3=Cc4c(cnn4-c4ccc(F)cc4)C[C@]3(C(=O)c3cc(C(F)(F)F)ccn3)C2)cn1 [relacorilant, (R)-(1-(4-fluorophenyl)-6-((1-methyl-1H-pyrazol-4-yl)sulfonyl)-4,4a,5,6,7,8-hexahydro-1H-pyrazolo[3,4-g]isoquinolin-4a-yl) (4-(trifluoromethyl)pyridin-2-yl) methanone] | – | significant increase | – | did not induce organoid proliferation | sensitizes CD PitNET tissue derived organoids to pasireotide; also recorded: sensitized organoid tumor cells to suppression of ACTH by pasireotide |
